Measured values: the NIST ThermoML archive (doi:10.1016/j.fluid.2017.06.019)

Details: Coaxial cylinder method

CCC [propane]
thermal conductivity [W/m/K]
Details | 367.32 K | 368.46 K
2968 kPa, Gas | – | 0.03214
2972 kPa, Gas | – | 0.03214
2978 kPa, Gas | – | 0.03213
3000 kPa, Gas | – | 0.03223
3030 kPa, Gas | – | 0.03238
3100 kPa, Gas | – | 0.03275
3150 kPa, Gas | – | 0.03302
3200 kPa, Gas | – | 0.03331
3250 kPa, Gas | – | 0.0336
3300 kPa, Gas | – | 0.03395
3350 kPa, Gas | – | 0.03428
3400 kPa, Gas | – | 0.03471
3500 kPa, Gas | – | 0.03552
3575 kPa, Gas | – | 0.03626
3650 kPa, Gas | – | 0.03704
3700 kPa, Gas | – | 0.03759
3720 kPa, Gas | – | 0.03785
3730 kPa, Gas | – | 0.03799
3740 kPa, Gas | – | 0.0381
3750 kPa, Gas | – | 0.03825
3755 kPa, Gas | – | 0.03832
3765 kPa, Gas | – | 0.03844
3775 kPa, Gas | – | 0.03858
3785 kPa, Gas | – | 0.03873
3790 kPa, Gas | – | 0.03878
3800 kPa, Gas | – | 0.03892
3850 kPa, Gas | – | 0.03974
3900 kPa, Gas | – | 0.04073
3950 kPa, Gas | – | 0.04194
4000 kPa, Gas | – | 0.04351
4038 kPa, Gas | – | 0.04518
4060 kPa, Gas | – | 0.04654
4066 kPa, Liquid | 0.1808 | –
4067 kPa, Liquid | 0.1761 | –
4068 kPa, Liquid | 0.1712 | –
4069 kPa, Liquid | 0.1669 | –
4070 kPa, Liquid | 0.1627 | –
4071 kPa, Liquid | 0.1586 | –
4072 kPa, Liquid | 0.1546 | –
4073 kPa, Liquid | 0.1511 | –
4074 kPa, Liquid | 0.1475 | –
4075 kPa, Liquid | 0.1439 | –
4076 kPa, Liquid | 0.1405 | –
4077 kPa, Liquid | 0.1378 | –
4078 kPa, Liquid | 0.1345 | –
4079 kPa, Liquid | 0.1317 | –
4080 kPa, Gas | – | 0.04809
4080 kPa, Liquid | 0.129 | –
4081 kPa, Liquid | 0.127 | –
4082 kPa, Liquid | 0.1249 | –
4083 kPa, Liquid | 0.123 | –
4084 kPa, Liquid | 0.121 | –
4085 kPa, Liquid | 0.1189 | –
4086 kPa, Liquid | 0.1166 | –
4087 kPa, Liquid | 0.115 | –
4088 kPa, Liquid | 0.1136 | –
4089 kPa, Liquid | 0.1118 | –
4090 kPa, Liquid | 0.1105 | –
4091 kPa, Liquid | 0.109 | –
4092 kPa, Liquid | 0.1085 | –
4093 kPa, Liquid | 0.1068 | –
4094 kPa, Liquid | 0.1051 | –
4095 kPa, Liquid | 0.1042 | –
4096 kPa, Gas | – | 0.04969
4096 kPa, Liquid | 0.1034 | –
4097 kPa, Liquid | 0.1027 | –
4098 kPa, Liquid | 0.1021 | –
4099 kPa, Gas | – | 0.05013
4099 kPa, Liquid | 0.1016 | –
4100 kPa, Liquid | 0.1007 | –
4101 kPa, Liquid | 0.09965 | –
4102 kPa, Gas | – | 0.0505
4102 kPa, Liquid | 0.09856 | –
4103 kPa, Liquid | 0.09755 | –
4104 kPa, Gas | – | 0.05078
4104 kPa, Liquid | 0.09655 | –
4105 kPa, Liquid | 0.09562 | –
4106 kPa, Gas | – | 0.05104
4106 kPa, Liquid | 0.0947 | –
4107 kPa, Liquid | 0.0938 | –
4108 kPa, Liquid | 0.09296 | –
4109 kPa, Liquid | 0.09214 | –
4110 kPa, Liquid | 0.09124 | –
4112 kPa, Gas | – | 0.05196
4112 kPa, Liquid | 0.08967 | –
4114 kPa, Gas | – | 0.05236
4114 kPa, Liquid | 0.0892 | –
4115 kPa, Gas | – | 0.0525
4116 kPa, Gas | – | 0.0527
4116 kPa, Liquid | 0.08674 | –
4117 kPa, Gas | – | 0.05291
4118 kPa, Gas | – | 0.05307
4118 kPa, Liquid | 0.08545 | –
4119 kPa, Gas | – | 0.05335
4120 kPa, Gas | – | 0.05349
4120 kPa, Liquid | 0.08412 | –
4121 kPa, Gas | – | 0.05378
4122 kPa, Gas | – | 0.05392
4122 kPa, Liquid | 0.08294 | –
4123 kPa, Gas | – | 0.05418
4124 kPa, Gas | – | 0.0565
4124 kPa, Liquid | 0.08176 | –
4125 kPa, Gas | – | 0.0589
4126 kPa, Gas | – | 0.06178
4126 kPa, Liquid | 0.08067 | –
4127 kPa, Gas | – | 0.06494
4128 kPa, Gas | – | 0.06863
4128 kPa, Liquid | 0.07964 | –
4129 kPa, Gas | – | 0.07284
4130 kPa, Gas | – | 0.07749
4130 kPa, Liquid | 0.07867 | –
4131 kPa, Gas | – | 0.08276
4132 kPa, Gas | – | 0.08878
4132 kPa, Liquid | 0.07775 | –
4133 kPa, Gas | – | 0.09573
4134 kPa, Gas | – | 0.1033
4134 kPa, Liquid | 0.07688 | –
4135 kPa, Gas | – | 0.1122
4136 kPa, Gas | – | 0.1221
4136 kPa, Liquid | 0.07609 | –
4137 kPa, Gas | – | 0.1337
4138 kPa, Gas | – | 0.1478
4138 kPa, Liquid | 0.07523 | –
4139 kPa, Gas | – | 0.1619
4140 kPa, Gas | – | 0.1793
4140 kPa, Liquid | 0.07455 | –
4141 kPa, Gas | – | 0.2022
4142 kPa, Gas | – | 0.214
4142 kPa, Liquid | 0.0738 | –
4143 kPa, Gas | – | 0.2272
4144 kPa, Gas | – | 0.241
4144 kPa, Liquid | 0.07315 | –
4145 kPa, Liquid | – | 0.2612
4146 kPa, Liquid | 0.0725 | 0.2405
4147 kPa, Liquid | – | 0.2228
4148 kPa, Liquid | 0.07187 | 0.2065
4149 kPa, Liquid | – | 0.1933
4150 kPa, Liquid | 0.07132 | 0.1809
4151 kPa, Liquid | – | 0.1745
4152 kPa, Liquid | 0.07076 | 0.1686
4153 kPa, Liquid | – | 0.164
4154 kPa, Liquid | 0.07028 | 0.1581
4155 kPa, Liquid | – | 0.1533
4156 kPa, Liquid | 0.06982 | 0.1489
4157 kPa, Liquid | – | 0.1449
4158 kPa, Liquid | – | 0.141
4159 kPa, Liquid | – | 0.1373
4160 kPa, Liquid | 0.06894 | 0.1338
4161 kPa, Liquid | – | 0.1305
4162 kPa, Liquid | 0.06852 | 0.1273
4163 kPa, Liquid | – | 0.1243
4164 kPa, Liquid | 0.06814 | 0.1214
4165 kPa, Liquid | – | 0.12
4166 kPa, Liquid | 0.06773 | –
4168 kPa, Liquid | 0.0674 | –
4170 kPa, Liquid | 0.06707 | –
4172 kPa, Liquid | 0.06674 | –
4174 kPa, Liquid | 0.06646 | –
4176 kPa, Liquid | 0.0662 | –
4178 kPa, Liquid | 0.06599 | –
4180 kPa, Liquid | 0.06574 | –
4182 kPa, Liquid | 0.06551 | –
4184 kPa, Liquid | 0.0653 | –
4186 kPa, Liquid | 0.06509 | –
4188 kPa, Liquid | 0.0649 | –
4190 kPa, Liquid | 0.06474 | –
4192 kPa, Liquid | 0.0647 | –
4194 kPa, Liquid | 0.06462 | –
4196 kPa, Liquid | 0.06458 | –
4198 kPa, Liquid | 0.06458 | –
4200 kPa, Liquid | 0.06456 | –
4202 kPa, Liquid | 0.06454 | –
4204 kPa, Liquid | 0.06452 | –
4206 kPa, Liquid | 0.0645 | –
4208 kPa, Liquid | 0.06448 | –
4210 kPa, Liquid | 0.06446 | –
4212 kPa, Liquid | 0.06444 | –
4214 kPa, Liquid | 0.06445 | –
4216 kPa, Liquid | 0.06443 | –
4218 kPa, Liquid | 0.06443 | –
4220 kPa, Liquid | 0.06439 | –
4222 kPa, Liquid | 0.06437 | –
4224 kPa, Liquid | 0.06435 | –
4226 kPa, Liquid | 0.06433 | –
4228 kPa, Liquid | 0.06435 | –
4230 kPa, Liquid | 0.06433 | –
4232 kPa, Liquid | 0.06431 | –
4234 kPa, Liquid | 0.06432 | –
4236 kPa, Liquid | 0.06432 | –
4238 kPa, Liquid | 0.0643 | –
4240 kPa, Liquid | 0.06428 | –
4250 kPa, Liquid | 0.06424 | –
4260 kPa, Liquid | 0.0642 | –
4270 kPa, Liquid | 0.06416 | –
4280 kPa, Liquid | 0.06413 | –
4290 kPa, Liquid | 0.06409 | –
4300 kPa, Liquid | 0.06407 | –
4350 kPa, Liquid | 0.06399 | –
4400 kPa, Liquid | 0.06399 | –
4450 kPa, Liquid | 0.06405 | –
4500 kPa, Liquid | 0.06413 | –
4550 kPa, Liquid | 0.06426 | –
4600 kPa, Liquid | 0.0644 | –
4650 kPa, Liquid | 0.06452 | –
4700 kPa, Liquid | 0.06466 | –
4770 kPa, Liquid | 0.06483 | –
4800 kPa, Liquid | 0.06498 | –
4850 kPa, Liquid | 0.06516 | –
4900 kPa, Liquid | 0.06532 | –
4950 kPa, Liquid | 0.06554 | –
4976 kPa, Liquid | 0.06564 | –
5077 kPa, Liquid | 0.06597 | –
